Measured values from the supplement of paper PMC8671470.
± gives the standard deviation of the averaged measurements.

Test system: HL-60
Test: cell viability (% survival relative to DMSO control); higher = less cytotoxic
Conditions: 72 h
Method in brief: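 For each screen, HL-60 cells in RPMI 1640 with 10% FBS carried either DMSO or 100 nM of one of three metabolic inhibitors while the full library was applied at five tenfold concentrations, 1–10,000 nM, in duplicate. Plates were 384-well and were kept 72 h at 37 °C, 5% CO2. Viability, measured by CellTiter-Glo, was normalised to wells with DMSO and with 10 μM proteasome inhibitor. Where area under the curve appears, it was fitted by four-parameter log-logistic models in drc and PharmacoGx.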

[1] = 0.001 µM, co-treatment: AZD3965 100 nM
[2] = 0.001 µM, co-treatment: DMSO vehicle
[3] = 0.001 µM, co-treatment: GSK2194069 100 nM
[4] = 0.001 µM, co-treatment: pictilisib 100 nM
[5] = 0.01 µM, co-treatment: AZD3965 100 nM
[6] = 0.01 µM, co-treatment: DMSO vehicle
[7] = 0.01 µM, co-treatment: GSK2194069 100 nM
[8] = 0.01 µM, co-treatment: pictilisib 100 nM
[9] = 0.1 µM, co-treatment: AZD3965 100 nM
[10] = 0.1 µM, co-treatment: DMSO vehicle
[11] = 0.1 µM, co-treatment: GSK2194069 100 nM
[12] = 0.1 µM, co-treatment: pictilisib 100 nM
[13] = 1 µM, co-treatment: AZD3965 100 nM
[14] = 1 µM, co-treatment: DMSO vehicle
[15] = 1 µM, co-treatment: GSK2194069 100 nM
[16] = 1 µM, co-treatment: pictilisib 100 nM
[17] = 10 µM, co-treatment: AZD3965 100 nM
[18] = 10 µM, co-treatment: DMSO vehicle
[19] = 10 µM, co-treatment: GSK2194069 100 nM
[20] = 10 µM, co-treatment: pictilisib 100 nM

O=C(O)C(Cl)Cl [Dichloroacetate] showed a cell viability [1] of 96.1 ± 3.5%, a cell viability [2] of 96.5 ± 1.4% and a cell viability [3] of 98.6 ± 9.5%. The cell viability [4] was 89.5 ± 5.3%, the cell viability [5] was 105 ± 4.1% and the cell viability [6] was 104 ± 6.4%. It also gave a cell viability [7] of 104 ± 2%, a cell viability [8] of 100 ± 12% and a cell viability [9] of 104 ± 4%. The cell viability [10] was 102 ± 2.5%, the cell viability [11] was 96.3 ± 9.7% and the cell viability [12] was 91 ± 4%. The cell viability [13] was 101 ± 2.4%, the cell viability [14] was 101 ± 2.9% and the cell viability [15] was 98.3 ± 5.9%. The cell viability [16] was 99.9 ± 2.8%, the cell viability [17] was 101 ± 1.1% and the cell viability [18] was 100.4 ± 0.25%. For the same compound, the cell viability [19] was 102.8 ± 0.97% and the cell viability [20] was 97 ± 5.1%.
O=C1Oc2ccccc2C(=O)C1CC1C(=O)Oc2ccccc2C1=O (stereo not given) [Dicumarol] was tested, and the cell viability [1] was 101 ± 6%, the cell viability [2] was 104 ± 3.1% and the cell viability [3] was 122 ± 4.6%. The cell viability [4] was 103 ± 4.7%, the cell viability [5] was 73.3 ± 30% and the cell viability [6] was 102 ± 6.2%. For the same compound, the cell viability [7] was 62.5 ± 23%, the cell viability [8] was 91 ± 15% and the cell viability [9] was 100 ± 3.5%. It also gave a cell viability [10] of 100 ± 1.2%, a cell viability [11] of 95.5 ± 1.2% and a cell viability [12] of 103 ± 9%. The cell viability [13] was 101 ± 5.3%, the cell viability [14] was 100 ± 8.3% and the cell viability [15] was 98.8 ± 5.7%. It also gave a cell viability [16] of 102 ± 11%, a cell viability [17] of 97.7 ± 4% and a cell viability [18] of 99.1 ± 4.8%. It also gave a cell viability [19] of 85 ± 7% and a cell viability [20] of 92.1 ± 5%.
In the case of CC12CCC(O)CC1CCC1C2CCC2(C)C(C3=CC(=O)OC3)CCC12O (stereo not given) [Digitoxigenin], the cell viability [1] is reported as 104 ± 7.6%, the cell viability [2] is reported as 99.5 ± 2.3% and the cell viability [3] is reported as 98.16 ± 0.98%. For the same compound, the cell viability [4] was 104 ± 4.3%, the cell viability [5] was 100 ± 5.7% and the cell viability [6] was 105 ± 4.2%. The cell viability [7] was 99.7 ± 2%, the cell viability [8] was 105 ± 4.2% and the cell viability [9] was 102 ± 1.2%. For the same compound, the cell viability [10] was 100 ± 3%, the cell viability [11] was 95 ± 3% and the cell viability [12] was 101.7 ± 0.93%. The cell viability [13] was -0.584 ± 0.77%, the cell viability [14] was -1.01 ± 1.5% and the cell viability [15] was -0.749 ± 1.5%. The cell viability [16] was -1.18 ± 0.99%, the cell viability [17] was -0.476 ± 0.086% and the cell viability [18] was -0.944 ± 0.072%. The cell viability [19] was -1.7 ± 0.21% and the cell viability [20] was -1.09 ± 0.14%.
C[C@H]1O[C@@H](O[C@H]2[C@@H](O)C[C@H](O[C@H]3[C@@H](O)C[C@H](O[C@H]4CC[C@@]5(C)[C@H](CC[C@@H]6[C@@H]5C[C@@H](O)[C@]5(C)[C@@H](C7=CC(=O)OC7)CC[C@]65O)C4)O[C@@H]3C)O[C@@H]2C)C[C@H](O)[C@@H]1O [Digoxin] was tested, and the cell viability [1] was 75.4 ± 20%, the cell viability [2] was 96.3 ± 4.9% and the cell viability [3] was 84.4 ± 2.7%. It also gave a cell viability [4] of 90.5 ± 2.1%, a cell viability [5] of 100.2 ± 0.99% and a cell viability [6] of 102.5 ± 0.88%. For the same compound, the cell viability [7] was 79.1 ± 12%, the cell viability [8] was 89.6 ± 7.5% and the cell viability [9] was 59.9 ± 4.1%. The cell viability [10] was 59.4 ± 21%, the cell viability [11] was 67.8 ± 22% and the cell viability [12] was 51.4 ± 16%. It also gave a cell viability [13] of -2.24 ± 0.7%, a cell viability [14] of 0.303 ± 2.7% and a cell viability [15] of -2.57 ± 0.89%. For the same compound, the cell viability [16] was -2.59 ± 1.1%, the cell viability [17] was -0.643 ± 0.45% and the cell viability [18] was -1.62 ± 0.34%. The cell viability [19] was -1.79 ± 0.52% and the cell viability [20] was -1.33 ± 0.87%.
O=c1c2ccccc2[se]n1-c1ccccc1 [Ebselen] gave a cell viability [1] of 104 ± 4.5%, a cell viability [2] of 98.4 ± 6.1% and a cell viability [3] of 96.3 ± 1.7%. For the same compound, the cell viability [4] was 96.51 ± 0.22%, the cell viability [5] was 101 ± 1.1% and the cell viability [6] was 98.6 ± 6.1%. It also gave a cell viability [7] of 102 ± 2.2%, a cell viability [8] of 92.1 ± 3.8% and a cell viability [9] of 102 ± 11%. For the same compound, the cell viability [10] was 103 ± 4.5%, the cell viability [11] was 103 ± 11% and the cell viability [12] was 97.4 ± 12%. The cell viability [13] was 104 ± 5.3%, the cell viability [14] was 99 ± 4.8% and the cell viability [15] was 108 ± 10%. The cell viability [16] was 103 ± 3.2%, the cell viability [17] was 100 ± 1.4% and the cell viability [18] was 95.7 ± 5.4%. The cell viability [19] was 98.4 ± 1.8% and the cell viability [20] was 86.2 ± 7.3%.
Compound C#Cc1cnc(O)nc1O [Eniluracil] has a cell viability [1] of 86 ± 17%, a cell viability [2] of 102 ± 2% and a cell viability [3] of 88.7 ± 30%. The cell viability [4] was 85.5 ± 17%, the cell viability [5] was 97.4 ± 1.8% and the cell viability [6] was 101.6 ± 0.32%. The cell viability [7] was 93.8 ± 3.5%, the cell viability [8] was 100.4 ± 0.67% and the cell viability [9] was 103 ± 2.1%. For the same compound, the cell viability [10] was 101.1 ± 0.89%, the cell viability [11] was 100.8 ± 0.49% and the cell viability [12] was 99.32 ± 0.24%. For the same compound, the cell viability [13] was 103 ± 1.8%, the cell viability [14] was 99.9 ± 4.8% and the cell viability [15] was 95.8 ± 9.8%. It also gave a cell viability [16] of 102 ± 6.5%, a cell viability [17] of 102.99 ± 0.034% and a cell viability [18] of 101 ± 4.8%. The cell viability [19] was 96.7 ± 6.7% and the cell viability [20] was 103 ± 4.7%.
